Experimental data from US7592188B2, “Live cell biosensors” (The Scripps Research Institute, priority 2004, dated 2009).
Entries after “also recorded” stand apart in the source; their conditions may differ.

Assays:
[1] = test system: Erk2; test: Fluorescence response of dye-labeled Erk2 to phosphorylation; assay type: biochemical
From the text: This Example illustrates that the dyes of the invention can be attached directly to a protein of interest (e.g. Erk), where the dyes respond to conformational changes and phosphorylation. In particular, the I-TBA-3CNPh dye was attached to cysteine 214 of the MAP kinase Erk2, where it responded to Erk phosphorylation. A structure for the I-TBA-3CNPh dye is provided below.
This model was based on tryptic digestion combined with mass spectroscopic sequencing of the labeled protein, and on docking studies. The lighter (yellow) residues represent two lysines undergoing hydrogen bonding with the dye, and a tryptophan interacting through π-π stacking. Phosphorylation of the purple residues altered the conformation of the protein, affecting the tryptophan interaction and perturbing some of the hydrogen bonds.

[2] = Water solubility and aggregation of dyes in water (absorbance spectra); conditions: in words
From the text: Labeling was accomplished only by including greater than 5% DMSO as cosolvent.

[3] = test system: Rho kinase; test: Extension and retraction of protrusions with Rho kinase inhibitor; assay type: cell-based
From the text: These possibilities were distinguished by blocking retraction using an inhibitor of Rho kinase (Y27632).

[4] = biological target: T1, Cdc42 (Homo sapiens, UniProt P60953); test: Analysis of Cdc42 activation: fluorescence of dye-labeled WASP fragment; assay type: binding
T1 construct: 6His; made in house; host or cells: E. coli BL21DE3, only by the words 'analogous procedures' to the CBD preparation
Experimental: Analysis of Cdc42 Activation. A solution of the WASP conjugate (300 nM) in a assay buffer (50 mM Tris-HCl, pH 7.6, 50 mM NaCl, 5 mM MgCl2, 1 mM DTT) was mixed 1:1 (v/v) with solutions of Cdc42, pre-equilibrated with 10 mM GDP or GTPγS as described below. Emission at 630 nm and excitation at 600 nm were used to acquire excitation and emission spectra, respectively. For nucleotide dependence, Cdc42 (500 nM) was preincubated with varying concentrations of GTPγS (1-500 nM).

[5] = Dye photo-bleaching under tungsten lamp irradiation; assay type: physicochemical
Experimental: Photo-bleaching. All samples contained 1 mM dye in a final volume of 10 mL. For nitrogen and oxygen saturation the samples were bubbled with solvent-saturated gas for 30 min. A 90 W halogen tungsten lamp was employed for irradiation, with a fan used for cooling. The temperature of samples was 25±1° C. during reactions. The absorption spectrum of each sample was measured before irradiation and after every 10 h period. For the trapping experiment thioanisole (1.0 M) was added to oxygen-saturated butanol solution of dye 1b. After 60 h of irradiation the reaction mixture was analyzed by GC-MS for products formed. The products, methylphenylsulfoxide and methylphenyl sulfone, were identified by comparison with authentic samples.
Dyes used in living cells must be photostable to provide many sequential images and to obtain sufficient light from minimal amounts of exogenous labeled material. The photostability of the new dyes was characterized by exposing them to constant illumination from a tungsten lamp filtered through glass, a broad spectrum light source that provided essentially equal intensity throughout the spectral range where the dyes would be irradiated in vivo. A fan was used to prevent heating, and dye solutions were adjusted for equal maximal absorbance, kept below 1 μM to minimize the inner filter effect. […] Photo-bleaching followed first-order kinetics in all cases.

[6] = Quantum yield of triplet state formation; assay type: physicochemical; conditions: in ethanol
[7] = Photophysical properties of dyes in various solvents (absorbance, emission, quantum yield); assay type: physicochemical; parameters: ε × F / ε × Φ: unit not given here
Experimental: Analytical grade reagents were purchased from major suppliers. […] Emission and excitation spectra were obtained using a Spex Fluorolog 2 spectrofluorometer at 23° C. […] Demas et al., J. Phys. […] All operations with dyes were performed under dim light. Flasks containing dyes were wrapped with aluminum foil.

[8] = test system: Cdc42; test: MeroCBD biosensor imaging of Cdc42 activation in living cells; assay type: cell-based; conditions: in words
From the text: The I—SO labeled WASP fragment provided a straightforward means to assay Cdc42 activation in cell lysates. By simply adding the biosensor to the lysate, the fluorescence readout of Cdc42 activation. This method was used to determine the kinetics of Cdc42 activation in neutrophils after stimulation with chemoattractant fMetLeuPhe (FMLP) peptide. Results obtained paralleled those previously reported using well-established methods (Benard et al., J. Biol. Chem. 275: 36457 (2000). Fluorescence of the biosensor was also used to monitor the real-time kinetics of Cdc42 GDP/GTP exchange in vitro. Because the labeled WASP fragment responded to activated Cdc42 through fluorescence intensity modulation, a ratiometric imaging approach was used to correct for effects of varying cell thickness, uneven illumination, and other factors that could affect imaging of dye intensity (Bright et al., Methods Cell Biol. 14: 157 (1989). The biosensor was fused to enhanced green fluorescent protein (EGFP) to provide a fluorescence signal insensitive to Cdc42 binding, but with the same subcellular distribution as the sensitive dye. The dye image could be divided by the EGFP image to normalize changes in dye intensity not originating from Cdc42 binding. […] Fluorescence response and Cdc42 binding of the biosensor remained intact after these modifications. […]

[9] = biological target: T2, RhoA (Homo sapiens, UniProt P61586); test: Specificity of I-SO WASP biosensor for activated GTPases; assay type: binding; conditions: concentrations well above physiological levels
T2 construct: 6His; made in house; host or cells: E. coli BL21DE3, only by the words 'analogous procedures'
Experimental: (§1) Further studies were conducted using the I—SO dye 4b attached at position F271 C of the WASP fragment. This biosensor had properties similar to the S—SO biosensor described above. […] To determine the specificity of the biosensor, interactions with different activated GTPases were examined. The biosensor distinguished proteins closely related to Cdc42 from other members of the Rho family.

[10] = biological target: T3, Rac (Homo sapiens, UniProt P63000); test: as above; assay type: binding; conditions: concentrations well above physiological levels
T3 construct: 6His; made in house; host or cells: E. coli BL21DE3, only by the words 'analogous procedures'
Experimental: as §1

[11] = biological target: TC10 (Homo sapiens, UniProt P17081); test: as above; assay type: binding
Experimental: as §1

T1 sequence (P60953 whole entry, species assumed, the tested form may be a part): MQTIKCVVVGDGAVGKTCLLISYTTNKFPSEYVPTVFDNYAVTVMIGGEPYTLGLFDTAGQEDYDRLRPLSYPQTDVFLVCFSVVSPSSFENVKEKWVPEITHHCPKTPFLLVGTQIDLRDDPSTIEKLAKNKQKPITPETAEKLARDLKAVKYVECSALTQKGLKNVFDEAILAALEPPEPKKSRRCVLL
T2 sequence (P61586 whole entry, species assumed): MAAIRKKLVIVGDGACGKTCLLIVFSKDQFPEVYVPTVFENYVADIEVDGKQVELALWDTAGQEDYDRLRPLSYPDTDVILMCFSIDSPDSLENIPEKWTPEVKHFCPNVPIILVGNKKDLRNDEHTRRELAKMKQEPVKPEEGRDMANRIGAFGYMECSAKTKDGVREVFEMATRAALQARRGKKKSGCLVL
Chain of TC10 (P17081 whole entry, species assumed): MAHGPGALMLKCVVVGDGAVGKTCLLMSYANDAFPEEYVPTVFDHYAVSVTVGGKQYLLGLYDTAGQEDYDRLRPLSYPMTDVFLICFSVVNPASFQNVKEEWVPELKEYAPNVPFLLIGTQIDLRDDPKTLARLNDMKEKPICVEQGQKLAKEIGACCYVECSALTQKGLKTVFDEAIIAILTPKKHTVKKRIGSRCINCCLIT

With “labeled Erk2 protein: MAP kinase Erk2 with I-TBA-3CNPh dye attached to cysteine 214” the “phosphorylation activity of labeled Erk2” value ([1]; Western blots, substrate Elk) was “retains phosphorylation activity”.

With `CN1C(=O)C(=C/C=C/C=C2/Sc3ccccc3N2CCCS(=O)(=O)[O-])C(=O)N(C)C1=S.[Na+]` [dye 1c, Sodium 3-[(2E)-2-[(2E)-4-(1,3-Dimethyl-4,6-dioxo-2-thioxotetrahydro-pyrimidin-5(2H)-ylidene)but-2-enylidene]-1,3-benzothiazol-3(2H)-yl]propane-1-sulfonate] the water solubility [2] was “significantly improved”.

In the case of `CC1(C)/C(=C\C=C\C=C2C(=O)N(Cc3cccc(C#N)c3)C(=S)N(Cc3cccc(C#N)c3)C2=O)N(CCCNC(=O)CI)c2ccc(S(=O)(=O)O)cc21` [I-TBA-3CNPh], the “fluorescence change of dye-labeled Erk2” value ([1]; incubation with MEK kinase and ATP) is reported as “phosphorylation-induced increase in fluorescence”.

In the case of `C[C@@H](N)[C@H]1CC[C@H](C(=O)Nc2ccncc2)CC1` [Y27632], the effect on protrusions [3] is reported as “caused protrusions to continue expanding even after Cdc42 activity decreased”.

For `CCN1/C(=C/C=C/C=C/C2=[N+](CCCCCC(=O)O)c3ccc(S(=O)(=O)O)cc3C2(C)C)C(C)(C)c2cc(S(=O)(=O)[O-])ccc21` [Cy5, reference compound], the “change in fluorescence intensity of cyanine-labeled WASP fragment” value ([4]; control experiments, WASP fragment labeled with Cy3 or Cy5) was “no change in fluorescence intensity was observed”, the “Absolute rate constant of dye photo-bleaching, kph × 10^6” value (“Absolute rate constant” for short) ([5]; BuOH) was 0.77 s^−1 and the “Absolute rate constant” value ([5]; MeOH) was 1.0 s^−1.

With `CN1C(=O)C(=C/C=C/C=C2\N(C)c3ccccc3C2(C)C)C(=O)N(C)C1=S` [dye 3a, 1,3-Dimethyl-2-thioxo-5-[(2E,4Z)-4-(1,3,3-trimethyl-1,3-dihydro-2H-indol-2-ylidene)but-2-enylidene]dihydropyrimidine-4,6(1H,5,H)-dione] the “ΦT, quantum yield of triplet state formation” value [6] was 0.003, the “Abs. λmax” value ([7]; solvent BuOH) was 589 nm and the “Emission λmax” value ([7]; solvent BuOH) was 609 nm. The “Φ (quantum yield of fluorescence)” value ([7]; solvent BuOH) was 0.61, the “ε (molar extinction coefficient)” value ([7]; solvent BuOH) was “(190000)” and the “ε × F” value ([7]; solvent BuOH) was 116000. The “Abs. λmax” value ([7]; solvent C6H6) was 584 nm, the “Emission λmax” value ([7]; solvent C6H6) was 605 nm and the “Φ (quantum yield of fluorescence)” value ([7]; solvent C6H6) was 0.20. The “ε (molar extinction coefficient)” value ([7]; solvent C6H6) was “(127000)”, the “ε × F” value ([7]; solvent C6H6) was 26000 and the “Abs. λmax” value ([7]; solvent DMF) was 589 nm. For the same molecule, the “Emission λmax” value ([7]; solvent DMF) was 611 nm, the “Φ (quantum yield of fluorescence)” value ([7]; solvent DMF) was 0.94 and the “ε (molar extinction coefficient)” value ([7]; solvent DMF) was “(183000)”. For the same molecule, the “ε × F” value ([7]; solvent DMF) was 172000, the “Abs. λmax” value ([7]; solvent MeOH) was 583 nm and the “Emission λmax” value ([7]; solvent MeOH) was 603 nm. The “Φ (quantum yield of fluorescence)” value ([7]; solvent MeOH) was 0.26, the “ε (molar extinction coefficient)” value ([7]; solvent MeOH) was “(173000)” and the “ε × F” value ([7]; solvent MeOH) was 45000. For the same molecule, the “Abs. λmax” value ([7]; solvent OcOH) was 590 nm, the “Emission λmax” value ([7]; solvent OcOH) was 609 nm and the “Φ (quantum yield of fluorescence)” value ([7]; solvent OcOH) was 0.99. For the same molecule, the “ε (molar extinction coefficient)” value ([7]; solvent OcOH) was “(180000)”, the “ε × F” value ([7]; solvent OcOH) was 178000 and the “Absolute rate constant” value ([5]; BuOH) was 0.78 s^−1. For the same molecule, the “Absolute rate constant” value ([5]; MeOH) was 0.18 s^−1.

With `CCN1/C(=C\C=C\C=C2C(=O)N(C)C(=S)N(C)C2=O)Sc2ccccc21` [dye 1b, 1,3-Dimethyl-5-[(2E,4E)-4-(3-ethyl-1,3-benzothiazol-2(3H)-ylidene)-but-2-enylidene]-2-thioxodihydropyrimidine-4,6(1H,5H)-dione] the “ΦT, quantum yield of triplet state formation” value [6] was 0.008, the “Abs. λmax” value ([7]; solvent BuOH) was 595 nm and the “Emission λmax” value ([7]; solvent BuOH) was 613 nm. The “Φ (quantum yield of fluorescence)” value ([7]; solvent BuOH) was 0.26, the “ε (molar extinction coefficient)” value ([7]; solvent BuOH) was “(188000)” and the “ε × F” value ([7]; solvent BuOH) was 49000. The “Abs. λmax” value ([7]; solvent C6H6) was 600 nm, the “Emission λmax” value ([7]; solvent C6H6) was 617 nm and the “Φ (quantum yield of fluorescence)” value ([7]; solvent C6H6) was 0.37. For the same molecule, the “ε (molar extinction coefficient)” value ([7]; solvent C6H6) was “(184000)”, the “ε × F” value ([7]; solvent C6H6) was 68000 and the “Abs. λmax” value ([7]; solvent DMF) was 595 nm. For the same molecule, the “Emission λmax” value ([7]; solvent DMF) was 613 nm, the “Φ (quantum yield of fluorescence)” value ([7]; solvent DMF) was 0.32 and the “ε (molar extinction coefficient)” value ([7]; solvent DMF) was “(194000)”. For the same molecule, the “ε × F” value ([7]; solvent DMF) was 62000, the “Abs. λmax” value ([7]; solvent MeOH) was 583 nm and the “Emission λmax” value ([7]; solvent MeOH) was 606 nm. For the same molecule, the “Φ (quantum yield of fluorescence)” value ([7]; solvent MeOH) was 0.13, the “ε (molar extinction coefficient)” value ([7]; solvent MeOH) was “(134000)” and the “ε × F” value ([7]; solvent MeOH) was 18000. For the same molecule, the “Abs. λmax” value ([7]; solvent OcOH) was 598 nm, the “Emission λmax” value ([7]; solvent OcOH) was 615 nm and the “Φ (quantum yield of fluorescence)” value ([7]; solvent OcOH) was 0.52. The “ε (molar extinction coefficient)” value ([7]; solvent OcOH) was “(220000)”, the “ε × F” value ([7]; solvent OcOH) was 115000 and the “Absolute rate constant” value ([5]; BuOH) was 5.2 s^−1. For the same molecule, the “Absolute rate constant” value ([5]; MeOH) was 4.3 s^−1.

B1: MeroCBD (conjugate)
chain: DIQNPDITSSRYRGLPAPGPSPADKKRSGKKKISKADIGAPSGFKHVSHVGWDPQNGFDVNNLDPDLRSLCSRAGISEAQLTDAETSKLIYDFIEDQGGLEAVRQEMRRQEPLP
modifications: left off: large carriers
In the case of B1, the “Cdc42 activation reported by biosensor in living cells” value [8] is reported as “showed localized Cdc42 activation even in unstimulated cells; also recorded: consistently showed activation in the trans-Golgi apparatus of endothelial cells”.

B2: labeled WASP fragment: WASP fragment (residues 201-320, F271C) derivatized with S—SO dye 2e (conjugate)
chain: DIQNPDITSSRYRGLPAPGPSPADKKRSGKKKISKADIGAPSGFKHVSHVGWDPQNGFDVNNLDPDLRSLCSRAGISEAQLTDAETSKLIYDFIEDQGGLEAVRQEMRRQEPLPPPPPPS
modifications: left off: small tags and cut ends
notes: WASP fragment (residues 201-320, F271C) derivatized with S—SO dye 2e
With B2 the “increase in fluorescence intensity” value ([4]; incubated with activated Cdc42) was 300%.

B3: I—SO-WASP biosensor: I—SO dye attached at position F271C of the WASP fragment (conjugate)
chain: DIQNPDITSSRYRGLPAPGPSPADKKRSGKKKISKADIGAPSGFKHVSHVGWDPQNGFDVNNLDPDLRSLCSRAGISEAQLTDAETSKLIYDFIEDQGGLEAVRQEMRRQEPLPPPPPPS
modifications: left off: small tags and cut ends
notes: I—SO dye attached at position F271C of the WASP fragment
With B3 the “interaction with RhoA” value [9] was “did not interact”, the “interaction with Rac” value [10] was “did not interact” and the “response to TC10” value [11] was “responded”.
